The source of these data is US20220340983A1, “SYSTEMS AND ASSAYS FOR IDENTIFYING PU.1 INHIBITORS” (Massachustts Institute of Technology, priority 2019, published 2022).

One assay relates to iPS and ES-microglia. As to the kind of experiment: ELISA for IL1β in microglia supernatant. Type of assay: cell-based, human. On the technique in general: ELISA stands for enzyme-linked immunosorbent assay.
For a further assay, the system named is iPSC-microglia. Briefly: Morphology of IFN-gamma activated iPSC-microglia. The note with it: IFN-gamma 25 ng/mL 3 days, co-treated with A11 2.5 μM 2 days. Format: cell-based, human. As to the method: FIGS. 10A-10D show anti-inflammatory properties of A11 after IFNγ treatment on human induced pluripotent stem cell derived microglia. Cell viability is shown in FIG. 10A as measured with CellTiter Glo (Promega) in untreated (vehicle), A11 (2.5 μM) treated, IFNγ (25 ng/mL) treated and A11 +IFNγ treated cells. The morphology (round represent un-activated and elongated, filamentous represent activated by IFNγ) of these same conditions is shown in FIGS. 10B and quantified in FIG. 10C.
Human induced pluripotent stem cell derived microglia (iPSC-microglia) were activated with IFN-gamma (25 ng/mL, 3 days) and co-treated with A11 (2.5 μM, 2 days).

Assay [1] has as its system PU.1 dependent gene expression. Briefly: RT-qPCR of mRNA levels in BV2 PU.1-Luciferase cells (validation round 3). Type of assay: cell-based, mouse. The note with it: 2-day treatment. In general terms: Quantitative PCR measures a nucleic acid by following its amplification.
A further assay has as its target T1, PU.1 (Mus musculus, UniProt P17433).
T1 construct: endogenous in cells; host or cells: BV2 PU.1-Luciferase (mouse microglial BV2 with a 5xLBB-luciferase reporter integrated at ROSA26)
As to the kind of experiment: Luciferase assay (luminescence) in BV2 PU.1-Luciferase reporter cells. Type of assay: cell-based. The note with it: luminescence reduction in BV2 PU.1-Luciferase cells, concentration-response, Hill's equation. (Reporter assays use an easily measured gene product as a stand-in for the process of interest.)

As usually defined, the IC50 is the point on the concentration scale where inhibition reaches its midpoint. In the case of `O=S(=O)(NCc1ccncc1)c1ccc(C2CCCCC2)cc1` [Compound A11], the “supernatant IL1β levels, increase by IFNγ” value with iPS and ES-microglia (2-day IFNγ 25 ng/mL plus A11 20 nM, iPS and ES-microglia) is on record as “reversed”. Also, in the assay on iPS and ES-microglia (A11 alone 20nM, 2-day treatment), the “IL1β concentration in the supernatant” value was “did not affect”. Further, the “morphology induced by IFN-gamma” value with iPSC-microglia was “reversal of the elongated and filamentous morphology induced by IFN-gamma”. Besides, in assay [1], the “mRNA levels Apoe” value is reported as 1.522 multiples of 1×, the “mRNA levels IL1β” value is 0.418 multiples of 1×, the “mRNA levels Lucif.” value is given as 0.376 multiples of 1× and the “mRNA levels Spi1” value is 1.001 multiples of 1×. Further, in assay [1], the “mRNA levels Trem2” value is on record as 2.051 multiples of 1× and the “mRNA levels Tyrobp” value is on record as 2.101 multiples of 1×. At PU.1, this molecule registered an IC50 of 2 nM.
